From US20250340563A1, “FUSED PYRIDAZINE DERIVATIVES AS NLRP3 INHIBITORS” (Takeda Pharmaceutical Company Limited, priority 2022, published 2025) come the findings set out here.

Sequence of NLRP3 inflammasome (Q96P20 whole entry): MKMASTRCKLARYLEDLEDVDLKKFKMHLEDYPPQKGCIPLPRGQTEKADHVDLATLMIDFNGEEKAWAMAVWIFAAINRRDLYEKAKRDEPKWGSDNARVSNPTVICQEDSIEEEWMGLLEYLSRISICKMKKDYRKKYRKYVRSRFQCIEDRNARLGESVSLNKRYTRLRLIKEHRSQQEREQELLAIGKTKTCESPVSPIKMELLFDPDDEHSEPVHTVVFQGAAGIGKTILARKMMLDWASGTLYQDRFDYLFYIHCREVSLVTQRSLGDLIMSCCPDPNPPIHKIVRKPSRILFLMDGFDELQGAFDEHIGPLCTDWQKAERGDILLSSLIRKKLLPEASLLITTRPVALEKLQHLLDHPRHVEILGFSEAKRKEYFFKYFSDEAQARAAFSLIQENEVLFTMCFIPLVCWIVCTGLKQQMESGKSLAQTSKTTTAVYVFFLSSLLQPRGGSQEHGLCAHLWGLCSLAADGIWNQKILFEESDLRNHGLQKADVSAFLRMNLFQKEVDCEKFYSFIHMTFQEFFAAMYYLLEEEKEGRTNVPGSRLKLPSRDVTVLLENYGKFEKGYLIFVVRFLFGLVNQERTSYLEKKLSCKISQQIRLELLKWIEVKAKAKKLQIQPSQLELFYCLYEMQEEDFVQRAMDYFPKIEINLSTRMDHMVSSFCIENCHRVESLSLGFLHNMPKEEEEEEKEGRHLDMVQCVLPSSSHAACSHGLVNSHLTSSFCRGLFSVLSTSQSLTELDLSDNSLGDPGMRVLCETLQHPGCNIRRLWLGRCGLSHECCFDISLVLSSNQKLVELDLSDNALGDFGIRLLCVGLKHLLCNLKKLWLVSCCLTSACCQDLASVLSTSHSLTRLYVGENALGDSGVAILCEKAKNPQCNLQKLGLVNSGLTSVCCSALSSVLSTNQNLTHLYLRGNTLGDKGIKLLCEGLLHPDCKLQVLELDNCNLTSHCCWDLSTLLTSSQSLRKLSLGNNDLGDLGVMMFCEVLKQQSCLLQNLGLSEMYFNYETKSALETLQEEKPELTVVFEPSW

The test addresses NLRP3 inflammasome (Homo sapiens, UniProt Q96P20). Description: IL-1β assay in IFN-γ-differentiated, LPS-primed, ATP-activated THP-1 cells (ELISA). In kind it is cell-based. Conditions: 50 ng/mL LPS priming, 2.5 mM ATP activation, 2 hours. As for the experimental part:
Monocytic THP-1 cells (ATCC: TIB-202) are maintained in accordance with the provider's instructions in RPMI media (Life Technologies, Cat #A10491-01); RPMI is supplemented with 10% heat inactivated fetal bovine serum (Hyclone Cat #SH30396.03). The cells are differentiated into macrophages by the addition of 25 ng/mL IFN-7 (PeproTech, Cat #300-02-100UG) for 24 hours at 37° C./5% CO2. Media is exchanged with fresh media with no FBS, and the cells are treated with 50 ng/mL LPS (priming step) for 24 hours at 37° C./5% CO2 (LPS-EK: Invivogen, Cat #tlrl-peklps). Media is exchanged with fresh media with no FBS. The cells are plated at 40,000 cells per well in 384-well flat-bottom cell culture plates (Costar 3764) containing compounds (added in 1:1000) in a 1:3.16 serial dilution series in DMSO and are incubated for 30 minutes at 37° C./5% CO2. The NLRP3 inflammasome is activated with the addition of 2.5 mM ATP (Sigma Cat #A3377) and the cells are incubated for 2 hours at 37° C./5% CO2. At the end of the incubation period, 40 μL supernatant is removed, and […] are monitored using an ELISA (Human […], R&D systems, Cat #DY201) in accordance with the manufacturer's instructions.
The IC50 values are calculated from a plot of percentage of inhibition versus the inhibitor concentration by a logistics curve fit according to: Y=[Bottom+(Top−Bottom)]/(1+10^[(Log IC50−X)·Hill Slope], where Y is the % inhibition at the inhibitor concentration, X, “Bottom” is the lowest inhibition value, i.e. 0%, “Top” is the maximum inhibition value, i.e. 100%, and the “Hill Slope” describes the slope of the sigmoidal curve between the “Bottom” and “Top” values. The curve fitting was conducted with internally developed software.
A general note: In an ELISA, binding on a coated surface is turned into a signal by an enzyme label.
As a reminder, the IC50 is the midpoint of a concentration-inhibition curve. Lower therefore signals inhibition by little substance. As for `C[C@]1(O)C[C@@H](Nc2nnc(-c3ccc(Cl)cc3O)c3cnccc23)C1` [Example 94, cis-5-chloro-2-(1-((3-hydroxy-3-methylcyclobutyl)amino)pyrido[3,4-d]pyridazin-4-yl)phenol], the IC50 was 102 nM.
In the case of `Clc1ccc(-c2nnc(NC3CCCN(c4ccccn4)C3)c3ccccc23)cc1` (stereo not shown) [Example 154, 4-(4-chlorophenyl)-N-(1-(pyridin-2-yl)piperidin-3-yl)phthalazin-1-amine] it was 3390 nM.
Then `O[C@]1(C(F)(F)F)C[C@H](Nc2nnc(-c3ccc(Cl)cc3)c3ccccc23)C1` [Example 120, cis-3-((4-(4-chlorophenyl)phthalazin-1-yl)amino)-1-(trifluoromethyl)cyclobutan-1-ol], with 933 nM; and `FCCN1CCC(Nc2nnc(-c3ccc(Cl)cc3)c3ccccc23)C1` (stereo not shown) [Example 143, 4-(4-chlorophenyl)-N-(1-(2-fluoroethyl)pyrrolidin-3-yl)phthalazin-1-amine], with 1590 nM.
In the case of `CN1CCC[C@@H](Nc2nnc(-c3ccc(OC(F)(F)F)c(C#N)c3)c3ccncc23)C1` [Example 24, (R)-5-(4-((1-methylpiperidin-3-yl)amino)pyrido[3,4-d]pyridazin-1-yl)-2-(trifluoromethoxy)benzonitrile] it was 157 nM.
`CN1CCC[C@@H](Nc2nnc(-c3ccc(C(F)(F)F)cc3)c3ccncc23)C1` [Example 34, (R)—N-(1-methylpiperidin-3-yl)-1-(4-(trifluoromethyl)phenyl)pyrido[3,4-d]pyridazin-4-amine] yielded an IC50 of 28 nM.
Then `COc1ccc(-c2nnc(N[C@@H]3CCCN(C)C3)c3c2COCC3)cc1` [Example 223, (R)-4-(4-methoxyphenyl)-N-(1-methylpiperidin-3-yl)-7,8-dihydro-5H-pyrano[3,4-d]pyridazin-1-amine], with 457 nM; and `Cc1cc(Cl)ccc1-c1nnc(N[C@@H]2CCCN(C)C2)c2cnccc12` [Example 31, (R)-1-(4-chloro-2-methylphenyl)-N-(1-methylpiperidin-3-yl)pyrido[3,4-d]pyridazin-4-amine], with 34 nM; and `CCN1CC(C)C(Nc2nnc(-c3ccc(Cl)cc3)c3ccccc23)C1` (stereo not shown) [Example 159, 4-(4-chlorophenyl)-N-(1-ethyl-4-methylpyrrolidin-3-yl)phthalazin-1-amine], with 3630 nM.
Then `Oc1cccc(Nc2nnc(-c3ccc(C4CC4)cc3F)c3ccccc23)c1` [Example 8, 3-((4-(4-cyclopropyl-2-fluorophenyl)phthalazin-1-yl)amino)phenol], with 891 nM.
Then `Oc1cccc(Nc2nnc(-c3ccc(C4(C(F)(F)F)CC4)cc3)c3ccccc23)c1` [Example 4, 3-((4-(4-(1-(trifluoromethyl)cyclopropyl)phenyl)phthalazin-1-yl)amino)phenol], with 1410 nM; and `CC(=O)N1CCc2c(NC3CCCN(C)C3)nnc(-c3ccc(Cl)cc3)c2C1` (stereo not shown) [Example 104, 1-(4-(4-chlorophenyl)-1-((1-methylpiperidin-3-yl)amino)-7,8-dihydropyrido[3,4-d]pyridazin-6(5H)-yl)ethan-1-one], with 1660 nM.
On to `CC(=O)N1CCC(Nc2nnc(-c3ccc(Cl)cc3)c3ccccc23)C1` (stereo not shown) [Example 160, 1-(3-((4-(4-chlorophenyl)phthalazin-1-yl)amino)pyrrolidin-1-yl)ethan-1-one], for which the midpoint of inhibition, the IC50, lay at 4790 nM. Against the preceding compound, the IC50 is about 2.9-fold higher.
Then `CN1CCCC(Nc2nnc(-c3ccccc3)c3ccccc23)C1` (stereo not shown) [Example 42, N-(1-methylpiperidin-3-yl)-4-phenylphthalazin-1-amine], with 1150 nM; and `COc1cc(F)ccc1-c1nnc(N[C@@H]2C[C@@H](F)CN(C)C2)c2ccncc12` [Example 182, N-((3R,5R)-5-fluoro-1-methylpiperidin-3-yl)-4-(4-fluoro-2-methoxyphenyl)pyrido[3,4-d]pyridazin-1-amine], with 3470 nM.
`CN1CCCC(N(C)c2nnc(-c3ccc(Cl)cc3)c3ccccc23)C1` (stereo not shown) [Example 112, 4-(4-chlorophenyl)-N-methyl-N-(1-methylpiperidin-3-yl)phthalazin-1-amine] registered an IC50 of 4250 nM. This IC50 and that of the compound before are within 1.5-fold of each other.
